From PubChem BioAssay AID256 (DTP/NCI, 2004)
Several values for one entry are separate records, joined by “and”; a condition that tells them apart may be missing. Equal entries are not always repeated. Inconclusive results and toxic doses are left out. Rule for the calls: active = survival T/C of 150% or more; inactive = T/C below 125% in these data.

Test system: CD2F1 mice, L1210 leukemia ip, survival T/C
Test: NCI In Vivo Anticancer Drug Screen. Data for tumor model L1210 Leukemia (intraperitoneal) in CD2F1 (CDF1) mice
Details: higher = longer survival
Method in brief: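 Compound-dosed mice with transplantable tumor versus matched vehicle controls; endpoint ratio T/C reported.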

[1] = endpoint: mean survival time, dose: 100.0 mg/kg/injection, schedule: Q01DX001 (ip), vehicle: saline with Tween-80
[2] = endpoint: mean survival time, dose: 100.0 mg/kg/injection, schedule: Q04DX002 (ip), vehicle: saline with Tween-80
[3] = endpoint: mean survival time, dose: 200.0 mg/kg/injection, schedule: Q01DX001 (ip), vehicle: saline with Tween-80
[4] = endpoint: mean survival time, dose: 200.0 mg/kg/injection, schedule: Q04DX002 (ip), vehicle: saline with Tween-80
[5] = endpoint: mean survival time, dose: 400.0 mg/kg/injection, schedule: Q01DX001 (ip), vehicle: saline with Tween-80
[6] = endpoint: mean survival time, dose: 400.0 mg/kg/injection, schedule: Q04DX002 (ip), vehicle: saline with Tween-80
[7] = endpoint: mean survival time, dose: 100.0 mg/kg/injection, schedule: Q01DX009 (ip), vehicle: saline with Tween-80
[8] = endpoint: mean survival time, dose: 200.0 mg/kg/injection, schedule: Q01DX009 (ip), vehicle: saline with Tween-80
[9] = endpoint: mean survival time, dose: 400.0 mg/kg/injection, schedule: Q01DX009 (ip), vehicle: saline with Tween-80
[10] = endpoint: mean survival time, dose: 100.0 mg/kg/injection, schedule: Q04DX003 (ip), vehicle: saline with Tween-80
[11] = endpoint: mean survival time, dose: 200.0 mg/kg/injection, schedule: Q04DX003 (ip), vehicle: saline with Tween-80
[12] = endpoint: mean survival time, dose: 400.0 mg/kg/injection, schedule: Q04DX003 (ip), vehicle: saline with Tween-80
[13] = endpoint: mean survival time, dose: 100.0 mg/kg/injection, schedule: Q01DX001 (ip), vehicle: saline
[14] = endpoint: mean survival time, dose: 200.0 mg/kg/injection, schedule: Q01DX001 (ip), vehicle: saline
[15] = endpoint: mean survival time, dose: 400.0 mg/kg/injection, schedule: Q01DX001 (ip), vehicle: saline
[16] = endpoint: mean survival time, dose: 50.0 mg/kg/injection, schedule: Q01DX009 (ip), vehicle: saline with Tween-80

Measured: T/C

O=c1[nH]cnc2c1ncn2CCCCCO
inactive: [1] 95 % of control | [2] 97 % of control | [3] 100 % of control | [4] 102 % of control | [5] 95 % of control | [6] 94 % of control

CC(=O)Nc1cccc(NC(C)=O)n1
inactive: [7] 95 % of control | [8] 94 % of control | [9] 91 % of control

CCCCCCCC(=O)Nc1c(C)cccc1C
inactive: [7] 96 % of control | [8] 88 % of control | [9] 91 % of control

CC(C)CCOC(=S)S.[Pt]
inactive: endpoint: mean survival time, dose: 9.37 mg/kg/injection, schedule: Q04DX003 (ip), vehicle: saline with Tween-80 112 % of control | endpoint: mean survival time, dose: 18.75 mg/kg/injection, schedule: Q04DX003 (ip), vehicle: saline with Tween-80 96 % of control | endpoint: mean survival time, dose: 37.5 mg/kg/injection, schedule: Q04DX003 (ip), vehicle: saline with Tween-80 96 % of control | endpoint: mean survival time, dose: 75.0 mg/kg/injection, schedule: Q04DX003 (ip), vehicle: saline with Tween-80 104 % of control | endpoint: mean survival time, dose: 150.0 mg/kg/injection, schedule: Q04DX003 (ip), vehicle: saline with Tween-80 96 % of control

O=Nc1ccc(NO)c2ccccc12
inactive: endpoint: mean survival time, dose: 50.0 mg/kg/injection, schedule: Q01DX009 (ip), vehicle: saline 98 % of control | endpoint: mean survival time, dose: 100.0 mg/kg/injection, schedule: Q01DX009 (ip), vehicle: saline 102 % of control | endpoint: mean survival time, dose: 200.0 mg/kg/injection, schedule: Q01DX009 (ip), vehicle: saline 102 % of control

NC(=O)c1n[nH]c(C2OC(CO)C(O)C2O)n1 (stereo unspecified)
inactive: endpoint: mean survival time, dose: 12.5 mg/kg/injection, schedule: Q01DX005 (ip), vehicle: water 94 % of control | endpoint: mean survival time, dose: 25.0 mg/kg/injection, schedule: Q01DX005 (ip), vehicle: water 92 % of control | endpoint: mean survival time, dose: 50.0 mg/kg/injection, schedule: Q01DX005 (ip), vehicle: water 94 % of control | endpoint: mean survival time, dose: 100.0 mg/kg/injection, schedule: Q01DX005 (ip), vehicle: water 94 % of control | endpoint: mean survival time, dose: 200.0 mg/kg/injection, schedule: Q01DX005 (ip), vehicle: water 96 % of control

CC(=O)Oc1cc2c(cc1C(C)C)CCC1C(C)(C#N)CCCC21C (stereo unspecified)
inactive: [7] 90 % of control | [10] 89 % of control | [8] 95 % of control | [11] 87 % of control | [9] 92 % of control | [12] 98 % of control

Nc1nc2c(c(=O)[nH]1)N1CCN(c3ccc(C(=O)NC(CCC(=O)O)C(=O)O)cc3)CC1CN2 (stereo unspecified)
inactive: endpoint: mean survival time, dose: 100.0 mg/kg/injection, schedule: Q01DX001 (ip), vehicle: sodium bicarbonate 100 % of control | endpoint: mean survival time, dose: 200.0 mg/kg/injection, schedule: Q01DX001 (ip), vehicle: sodium bicarbonate 100 % of control | endpoint: mean survival time, dose: 400.0 mg/kg/injection, schedule: Q01DX001 (ip), vehicle: sodium bicarbonate 86 % of control

c1ccc2c(c1)Cc1nc3ccccc3nc1-2
inactive: [7] 94 % of control | [10] 105 % of control | [8] 94 % of control | [11] 103 % of control | [9] 97 % of control | [12] 97 % of control

CCOC(=O)Nc1cccc(Cl)c1Cl
inactive: [7] 97 % of control | [8] 102 % of control | [9] 105 % of control

CC(C)C(C)c1ccccc1 (stereo unspecified)
inactive: [13] 100 % of control | [14] 100 % of control | [15] 98 % of control

CC1(C)OCC(C2OC(C)(C)OC2C2COC(C)(C)O2)O1 (stereo unspecified)
inactive: [2] 100 % of control | [4] 94 % of control | [6] 101 % of control

CCCCCCCC(=O)N/N=C(\CO)[C@]1(O)Cc2c(O)c3c(c(O)c2[C@@H](OC2CC(N)C(O)C(C)O2)C1)C(=O)c1c(OC)cccc1C3=O (stereo partly specified)
active: endpoint: mean survival time, dose: 48.0 mg/kg/injection, schedule: Q01DX009 (ip), vehicle: suspension in saline 162 % of control
inactive: endpoint: mean survival time, dose: 1.5 mg/kg/injection, schedule: Q01DX009 (ip), vehicle: saline 124 % of control | endpoint: mean survival time, dose: 3.0 mg/kg/injection, schedule: Q01DX009 (ip), vehicle: saline 122 % of control | endpoint: mean survival time, dose: 6.0 mg/kg/injection, schedule: Q01DX009 (ip), vehicle: saline 122 % of control | endpoint: mean survival time, dose: 12.0 mg/kg/injection, schedule: Q01DX009 (ip), vehicle: suspension in saline 118 % of control

NC(N)=N/N=C/C/C=N/N=C(N)N
inactive: endpoint: mean survival time, dose: 30.0 mg/kg/injection, schedule: Q01DX009 (ip), vehicle: saline 91 % of control | endpoint: mean survival time, dose: 60.0 mg/kg/injection, schedule: Q01DX009 (ip), vehicle: saline 90 % of control | endpoint: mean survival time, dose: 120.0 mg/kg/injection, schedule: Q01DX009 (ip), vehicle: saline 93 % of control | endpoint: mean survival time, dose: 240.0 mg/kg/injection, schedule: Q01DX009 (ip), vehicle: saline 90 % of control | endpoint: mean survival time, dose: 480.0 mg/kg/injection, schedule: Q01DX009 (ip), vehicle: saline 90 % of control

c1ccc(C2=NC3CCCCC3N=C2c2ccccc2)cc1 (stereo unspecified)
inactive: [7] 109 % of control | [8] 113 % of control | [9] 103 % of control

CC1CC(C)(C)N=C(C2CCCC2)O1 (stereo unspecified)
inactive: [1] 96 % of control | [3] 96 % of control | [5] 100 % of control

N#CCC(O)(/C=C/c1ccccc1)c1ccccc1 (stereo unspecified)
inactive: [7] 95 % of control | [10] 97 % of control | [8] 91 % of control | [9] 89 % of control | [12] 88 % of control

Nc1ccc(-c2ccc(C(=O)O)cc2)cc1
inactive: [1] 104 % of control and 108 % of control | [2] 101 % of control and 107 % of control | [3] 93 % of control and 98 % of control | [4] 95 % of control and 96 % of control | [6] 87 % of control

CC1(O)CC23CC(O)C4(O)C(CC(O)C4(C)C)C(C)(O)C2CCC1C3O (stereo unspecified)
inactive: endpoint: median survival time, dose: 0.06 mg/kg/injection, schedule: Q01DX009 (ip), vehicle: Klucel (hydroxypropylcellulose) (HPC) 97 % of control | endpoint: median survival time, dose: 0.12 mg/kg/injection, schedule: Q01DX009 (ip), vehicle: Klucel (hydroxypropylcellulose) (HPC) 96 % of control | endpoint: median survival time, dose: 0.25 mg/kg/injection, schedule: Q01DX009 (ip), vehicle: Klucel (hydroxypropylcellulose) (HPC) 102 % of control | endpoint: median survival time, dose: 0.5 mg/kg/injection, schedule: Q01DX009 (ip), vehicle: Klucel (hydroxypropylcellulose) (HPC) 97 % of control

CC(=O)OC1CCC2(C)C(=CCC3C4CC(C=O)=C(Cl)NC4(C)CCC32)C1 (stereo unspecified)
inactive: endpoint: mean survival time, dose: 25.0 mg/kg/injection, schedule: Q01DX001 (ip), vehicle: saline with Tween-80 98 % of control | endpoint: mean survival time, dose: 50.0 mg/kg/injection, schedule: Q01DX001 (ip), vehicle: saline with Tween-80 95 % of control | [1] 92 % of control and 101 % of control | [5] 87 % of control

O=c1[nH]cc(Br)c2sccc12
inactive: [16] 102 % of control | [7] 104 % of control

CC(=O)OC1CCC2(C)C(=CCC3C2CCC2(C)C(C(C)CCC(=O)O)CCC32)C1 (stereo unspecified)
inactive: [7] 95 % of control | [8] 95 % of control | [9] 96 % of control

COCCCNC1=C(C#N)C(=O)NC(c2cccc([N+](=O)[O-])c2)S1 (stereo unspecified)
inactive: endpoint: mean survival time, dose: 12.5 mg/kg/injection, schedule: Q01DX009 (ip), vehicle: saline with Tween-80 94 % of control | endpoint: mean survival time, dose: 25.0 mg/kg/injection, schedule: Q01DX009 (ip), vehicle: saline with Tween-80 96 % of control | [16] 96 % of control | [7] 100 % of control | [8] 102 % of control | [9] 103 % of control

CC(c1ccccc1)C(OC(=O)c1ccc([N+](=O)[O-])cc1)c1ccccc1 (stereo unspecified)
inactive: [7] 97 % of control | [10] 98 % of control | [8] 94 % of control | [11] 94 % of control | [9] 91 % of control | [12] 98 % of control

CC#CC#CC(=O)c1ccccc1
inactive: endpoint: mean survival time, dose: 5.0 mg/kg/injection, schedule: Q01DX001 (ip), vehicle: saline 97 % of control | endpoint: mean survival time, dose: 10.0 mg/kg/injection, schedule: Q01DX001 (ip), vehicle: saline 100 % of control

COC1CC(O)C(OS(=O)(=O)c2ccc(C)cc2)C(C)O1 (stereo unspecified)
inactive: [13] 112 % of control | [14] 100 % of control | [15] 102 % of control

Nc1[nH]c(=O)[nH]c(=O)c1N
inactive: [16] 93 % of control | [7] 93 % of control | endpoint: mean survival time, dose: 100.0 mg/kg/injection, schedule: Q04DX002 (ip), vehicle: saline 97 % of control | [10] 108 % of control | [8] 93 % of control | endpoint: mean survival time, dose: 200.0 mg/kg/injection, schedule: Q04DX002 (ip), vehicle: saline 97 % of control | [11] 108 % of control

C/C(=N\Nc1ccc2ccccc2n1)c1ccccc1O
inactive: [2] 98 % of control | [4] 98 % of control | [6] 110 % of control

CC(=O)Nc1c(Cl)c(Cl)c(Cl)c2c1-c1ccc(Cl)cc1C2
inactive: [1] 95 % of control | [7] 98 % of control | [3] 101 % of control | [8] 103 % of control | [5] 100 % of control | [9] 103 % of control
